Values of other authors as cited in patent publication US20020147153A1, “Nutritional supplement to alleviate symptoms associated with reduced levels of serotonin” (Functional Foods, Inc., priority 2001, published 2002).

How the values were obtained:
[1] = area under glycemic response curve, 2-hour period after 50 g carbohydrate, relative to white bread or glucose standard

Row | Structure (SMILES) | time to increased mental alertness (safe and rapid manner) | time of maximum effect (then almost entirely excreted) [h] | glycemic index (GI) [1]
1 | Cn1c(=O)c2c(ncn2C)n(C)c1=O [Caffeine] | approximately 30 minutes | 2 to 4.5 | 
2 | O=C(CO)[C@@H](O)[C@H](O)[C@H](O)CO [Fructose] |  |  | 32
